Test results reported in ChEMBL document CHEMBL5247677, “N-Aryl Indoles as a Novel Class of Potent NaV1.7 Inhibitors” (ACS Med Chem Lett, 2023).
Values after ≈ are worked out from the molar mass of the structure shown. Active and inactive are the calls of the source. No cut-off for these calls is given here.

Legend:
[1] = Aqueous thermodynamic solubility of the compound at pH 6.8 measured after 4 hrs by HPLC-UV analysis; assay type: physicochemical; conditions: read-out: Therm_solubility
[2] = Glutathione reactivity in human liver microsome assessed as GSH adduct formation; assay type: ADME; conditions: microsomes
Mus musculus [3] = experiment: Analgesic activity against PSL-induced neuropathic pain mouse model assessed as reversal of thermal hyperalgesia at 1 mg/kg, po measured after 30 mins by plantar test; assay type: functional
[4] = target: Sodium channel protein type 5 subunit alpha/beta-1/beta-2 (Homo sapiens, UniProt Q14524); experiment: Inhibition of human Nav1.5/beta1/2 transfected in HEK293-A cells assessed as inhibition of channel current incubated for 5.5 mins by high-throughput electrophysiology system analysis; assay type: toxicity, cell-based
Cytochrome P450 3A4 = Cytochrome P450 3A4 (Homo sapiens, UniProt P08684); experiment: Inhibition of CYP3A4 (unknown origin) at 10 uM; assay type: ADME
Cytochrome P450 3A4, sequence (P08684 whole entry): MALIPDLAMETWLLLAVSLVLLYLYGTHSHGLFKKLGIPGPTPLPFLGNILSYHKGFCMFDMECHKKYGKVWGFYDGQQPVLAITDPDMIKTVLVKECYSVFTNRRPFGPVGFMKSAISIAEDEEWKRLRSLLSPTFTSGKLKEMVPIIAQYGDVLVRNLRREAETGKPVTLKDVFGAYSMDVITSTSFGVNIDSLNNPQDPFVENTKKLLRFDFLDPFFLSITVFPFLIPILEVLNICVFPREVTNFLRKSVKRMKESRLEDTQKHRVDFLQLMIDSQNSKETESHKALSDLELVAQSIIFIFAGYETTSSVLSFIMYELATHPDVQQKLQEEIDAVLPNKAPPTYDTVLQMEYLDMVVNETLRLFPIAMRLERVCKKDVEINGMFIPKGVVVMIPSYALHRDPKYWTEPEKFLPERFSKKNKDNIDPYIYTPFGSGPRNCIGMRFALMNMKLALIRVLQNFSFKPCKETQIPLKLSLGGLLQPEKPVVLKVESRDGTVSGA

[5] = Selectivity ratio of IC50 for human Nav1.1/beta1/2 transfected in HEK293-A cells to IC50 for human Nav1.7/beta1/2 transfected in HEK293-A cells
[6] = target: Sodium channel protein type 9 subunit alpha/beta-1/beta-2 (Homo sapiens, UniProt Q15858); experiment: Inhibition of human Nav1.7/beta1/2 transfected in HEK293-A cells assessed as inhibition of channel current incubated for 5.5 mins by high-throughput electrophysiology system analysis; assay type: cell-based
Sodium channel protein type 9 subunit alpha/beta-1/beta-2 (Homo sapiens, UniProt Q15858), sequence (Q15858 whole entry): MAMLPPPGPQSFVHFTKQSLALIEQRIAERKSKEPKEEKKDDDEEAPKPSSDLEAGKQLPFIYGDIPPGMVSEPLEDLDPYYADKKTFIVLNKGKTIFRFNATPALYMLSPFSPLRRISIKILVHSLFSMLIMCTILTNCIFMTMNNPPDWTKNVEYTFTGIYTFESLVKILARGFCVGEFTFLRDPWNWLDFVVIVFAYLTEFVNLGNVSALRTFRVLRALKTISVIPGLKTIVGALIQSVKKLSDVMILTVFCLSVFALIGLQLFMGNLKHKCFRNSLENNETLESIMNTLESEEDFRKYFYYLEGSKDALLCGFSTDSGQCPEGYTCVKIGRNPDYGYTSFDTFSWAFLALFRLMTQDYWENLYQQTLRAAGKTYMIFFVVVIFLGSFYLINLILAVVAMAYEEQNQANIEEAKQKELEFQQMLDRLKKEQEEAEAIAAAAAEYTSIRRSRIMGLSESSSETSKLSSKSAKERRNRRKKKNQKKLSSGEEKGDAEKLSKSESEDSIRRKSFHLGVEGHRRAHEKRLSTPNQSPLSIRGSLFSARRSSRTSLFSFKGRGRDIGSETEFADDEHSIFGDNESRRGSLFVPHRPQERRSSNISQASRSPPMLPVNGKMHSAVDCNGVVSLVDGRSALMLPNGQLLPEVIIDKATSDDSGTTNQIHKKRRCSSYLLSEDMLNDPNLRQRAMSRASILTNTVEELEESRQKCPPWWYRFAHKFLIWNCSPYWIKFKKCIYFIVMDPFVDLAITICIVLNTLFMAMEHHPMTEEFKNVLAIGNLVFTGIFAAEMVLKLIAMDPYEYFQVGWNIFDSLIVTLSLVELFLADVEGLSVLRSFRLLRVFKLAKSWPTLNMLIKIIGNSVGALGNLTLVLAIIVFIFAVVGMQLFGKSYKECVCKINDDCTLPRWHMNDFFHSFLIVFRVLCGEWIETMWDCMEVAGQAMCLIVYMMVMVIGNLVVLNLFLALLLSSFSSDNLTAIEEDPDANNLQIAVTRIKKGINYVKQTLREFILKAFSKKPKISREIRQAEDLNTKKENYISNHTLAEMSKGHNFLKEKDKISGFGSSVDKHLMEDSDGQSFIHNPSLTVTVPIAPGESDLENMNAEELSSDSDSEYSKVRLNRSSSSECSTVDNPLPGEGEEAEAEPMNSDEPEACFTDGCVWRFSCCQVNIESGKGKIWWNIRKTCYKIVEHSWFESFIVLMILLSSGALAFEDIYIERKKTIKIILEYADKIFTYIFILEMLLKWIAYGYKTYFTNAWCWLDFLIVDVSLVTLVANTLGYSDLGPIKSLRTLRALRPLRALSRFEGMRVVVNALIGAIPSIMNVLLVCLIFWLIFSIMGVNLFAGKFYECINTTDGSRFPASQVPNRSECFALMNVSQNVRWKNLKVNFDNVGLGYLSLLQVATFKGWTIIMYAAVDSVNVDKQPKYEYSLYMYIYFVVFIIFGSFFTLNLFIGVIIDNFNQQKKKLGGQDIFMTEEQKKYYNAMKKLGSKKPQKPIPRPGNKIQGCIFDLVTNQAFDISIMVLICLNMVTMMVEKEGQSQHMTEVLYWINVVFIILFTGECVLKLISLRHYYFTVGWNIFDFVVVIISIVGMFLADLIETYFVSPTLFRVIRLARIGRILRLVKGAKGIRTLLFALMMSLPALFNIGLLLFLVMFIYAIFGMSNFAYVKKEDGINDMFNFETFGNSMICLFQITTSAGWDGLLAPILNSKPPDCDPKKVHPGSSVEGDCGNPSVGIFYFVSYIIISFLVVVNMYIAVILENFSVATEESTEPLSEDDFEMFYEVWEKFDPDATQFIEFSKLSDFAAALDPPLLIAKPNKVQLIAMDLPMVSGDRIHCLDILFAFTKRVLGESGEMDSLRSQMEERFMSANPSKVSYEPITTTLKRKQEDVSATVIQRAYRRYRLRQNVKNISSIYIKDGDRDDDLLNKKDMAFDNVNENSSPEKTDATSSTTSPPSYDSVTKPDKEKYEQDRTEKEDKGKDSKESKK
Sodium channel protein type 9 subunit alpha/beta-1/beta-2 (Homo sapiens, UniProt Q15858), sequence (O60939 whole entry, further chain): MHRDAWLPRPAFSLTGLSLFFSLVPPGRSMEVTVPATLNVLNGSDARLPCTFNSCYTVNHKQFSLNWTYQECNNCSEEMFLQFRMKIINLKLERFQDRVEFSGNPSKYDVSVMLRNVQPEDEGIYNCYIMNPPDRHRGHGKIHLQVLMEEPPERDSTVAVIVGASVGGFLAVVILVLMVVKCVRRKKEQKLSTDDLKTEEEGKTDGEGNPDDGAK
Sodium channel protein type 9 subunit alpha/beta-1/beta-2 (Homo sapiens, UniProt Q15858), sequence (Q07699 whole entry, further chain): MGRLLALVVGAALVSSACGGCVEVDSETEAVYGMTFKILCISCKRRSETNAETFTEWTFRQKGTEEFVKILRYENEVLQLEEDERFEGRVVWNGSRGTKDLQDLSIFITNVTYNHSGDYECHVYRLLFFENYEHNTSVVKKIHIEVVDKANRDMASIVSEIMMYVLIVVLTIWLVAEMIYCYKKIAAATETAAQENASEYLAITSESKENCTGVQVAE

Mus musculus [7] = experiment: Analgesic activity against PSL-induced neuropathic pain mouse model assessed as reversal of thermal hyperalgesia at 1 mg/kg, po measured after 240 mins by plantar test; assay type: functional, organism-based
Cytochrome P450 1A2 = target: T1, Cytochrome P450 1A2 (Homo sapiens, UniProt P05177); experiment: Inhibition of CYP1A2 (unknown origin) at 10 uM; assay type: ADME
T1 sequence (P05177 whole entry): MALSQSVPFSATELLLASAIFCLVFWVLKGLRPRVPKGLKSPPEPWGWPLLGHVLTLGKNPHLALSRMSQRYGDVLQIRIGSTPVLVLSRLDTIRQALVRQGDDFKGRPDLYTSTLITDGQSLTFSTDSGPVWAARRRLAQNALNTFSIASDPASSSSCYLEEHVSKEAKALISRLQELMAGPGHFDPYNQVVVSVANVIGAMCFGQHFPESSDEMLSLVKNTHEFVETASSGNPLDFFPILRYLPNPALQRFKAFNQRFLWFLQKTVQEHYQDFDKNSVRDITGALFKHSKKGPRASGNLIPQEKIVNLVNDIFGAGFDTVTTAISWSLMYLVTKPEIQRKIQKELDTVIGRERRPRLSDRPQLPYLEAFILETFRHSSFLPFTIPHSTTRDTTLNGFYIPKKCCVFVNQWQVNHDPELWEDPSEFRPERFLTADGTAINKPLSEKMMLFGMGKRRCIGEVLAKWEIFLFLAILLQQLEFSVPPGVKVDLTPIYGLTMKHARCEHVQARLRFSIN

[8] = Total body clearance in ddY mouse at 1 mg/kg, iv by LC-MS/MS analysis; assay type: ADME, organism-based; conditions: in vivo
[9] = Selectivity ratio of IC50 for human Nav1.5/beta1/2 transfected in HEK293-A cells to IC50 for human Nav1.7/beta1/2 transfected in HEK293-A cells
[10] = Volume of distribution at steady state in ddY mouse at 1 mg/kg, iv by LC-MS/MS analysis; assay type: ADME, organism-based; conditions: in vivo, read-out: Vdss
[11] = Unbound fraction in mouse plasma; assay type: ADME, cell-free
hERG (KCNH2) = hERG (KCNH2) (Homo sapiens, UniProt Q12809); experiment: Inhibition of hERG at 100 uM; assay type: toxicity
hERG (KCNH2), sequence (Q12809 whole entry): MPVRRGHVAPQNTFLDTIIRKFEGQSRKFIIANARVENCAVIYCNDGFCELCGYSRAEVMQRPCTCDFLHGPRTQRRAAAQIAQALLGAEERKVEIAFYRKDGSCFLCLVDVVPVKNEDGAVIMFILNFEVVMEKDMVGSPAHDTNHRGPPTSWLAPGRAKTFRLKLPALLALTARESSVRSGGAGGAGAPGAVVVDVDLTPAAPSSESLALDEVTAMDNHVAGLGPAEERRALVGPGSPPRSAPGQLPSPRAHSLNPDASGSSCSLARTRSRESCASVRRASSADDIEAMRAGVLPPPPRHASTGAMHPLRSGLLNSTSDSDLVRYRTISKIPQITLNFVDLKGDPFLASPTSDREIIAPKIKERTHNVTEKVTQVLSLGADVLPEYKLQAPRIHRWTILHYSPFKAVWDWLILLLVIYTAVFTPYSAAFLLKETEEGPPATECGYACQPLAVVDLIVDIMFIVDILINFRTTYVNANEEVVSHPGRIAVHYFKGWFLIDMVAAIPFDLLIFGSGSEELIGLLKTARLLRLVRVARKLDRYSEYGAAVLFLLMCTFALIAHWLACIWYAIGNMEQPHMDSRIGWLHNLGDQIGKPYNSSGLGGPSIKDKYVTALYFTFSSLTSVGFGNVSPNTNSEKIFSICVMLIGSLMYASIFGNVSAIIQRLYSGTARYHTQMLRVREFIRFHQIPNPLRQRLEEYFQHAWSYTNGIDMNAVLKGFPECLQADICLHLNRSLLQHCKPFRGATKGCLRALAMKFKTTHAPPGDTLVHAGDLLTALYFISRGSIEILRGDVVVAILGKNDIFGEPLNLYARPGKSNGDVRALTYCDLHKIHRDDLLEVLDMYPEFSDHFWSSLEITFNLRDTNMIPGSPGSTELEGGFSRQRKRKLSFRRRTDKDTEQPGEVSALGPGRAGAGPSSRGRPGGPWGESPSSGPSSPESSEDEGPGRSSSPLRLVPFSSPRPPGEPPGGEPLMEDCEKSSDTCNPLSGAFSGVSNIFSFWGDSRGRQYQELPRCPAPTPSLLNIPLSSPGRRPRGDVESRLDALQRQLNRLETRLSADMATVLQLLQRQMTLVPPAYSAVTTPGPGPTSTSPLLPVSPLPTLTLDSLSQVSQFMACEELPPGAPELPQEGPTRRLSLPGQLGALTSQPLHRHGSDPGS

[12] = target: Sodium channel protein type 1 subunit alpha/beta-1/beta-2 (Homo sapiens, UniProt P35498); experiment: Inhibition of human Nav1.1/beta1/2 transfected in HEK293-A cells assessed as inhibition of channel current incubated for 5.5 mins by high-throughput electrophysiology system analysis; assay type: toxicity, cell-based
[13] = AUC(0 to 24 hrs) in ddY mouse at 1 mg/kg, po by LC-MS/MS analysis; assay type: ADME, organism-based; parameters: dose 1 mg/kg, route po; conditions: in vivo
Mus musculus [14] = experiment: Analgesic activity against PSL-induced neuropathic pain mouse model assessed as reversal of thermal hyperalgesia at 1 mg/kg, po measured after 60 mins by plantar test; assay type: functional, organism-based
[15] = Cmax in ddY mouse at 1 mg/kg, po by LC-MS/MS analysis; assay type: ADME, organism-based; parameters: dose 1 mg/kg, route po; conditions: in vivo
[16] = Ratio of fCmax in ddY mouse plasma at 1 mg/kg, po to IC50 for inhibition of mouse Nav1.7/beta1/2 transfected in HEK293-A cells
[17] = Half life in ddY mouse at 1 mg/kg, po by LC-MS/MS analysis; assay type: ADME, organism-based; conditions: in vivo
Cytochrome P450 2C9 = Cytochrome P450 2C9 (Homo sapiens, UniProt P11712); experiment: Inhibition of CYP2C9 (unknown origin) at 10 uM; assay type: ADME
Cytochrome P450 2C9, sequence (P11712 whole entry): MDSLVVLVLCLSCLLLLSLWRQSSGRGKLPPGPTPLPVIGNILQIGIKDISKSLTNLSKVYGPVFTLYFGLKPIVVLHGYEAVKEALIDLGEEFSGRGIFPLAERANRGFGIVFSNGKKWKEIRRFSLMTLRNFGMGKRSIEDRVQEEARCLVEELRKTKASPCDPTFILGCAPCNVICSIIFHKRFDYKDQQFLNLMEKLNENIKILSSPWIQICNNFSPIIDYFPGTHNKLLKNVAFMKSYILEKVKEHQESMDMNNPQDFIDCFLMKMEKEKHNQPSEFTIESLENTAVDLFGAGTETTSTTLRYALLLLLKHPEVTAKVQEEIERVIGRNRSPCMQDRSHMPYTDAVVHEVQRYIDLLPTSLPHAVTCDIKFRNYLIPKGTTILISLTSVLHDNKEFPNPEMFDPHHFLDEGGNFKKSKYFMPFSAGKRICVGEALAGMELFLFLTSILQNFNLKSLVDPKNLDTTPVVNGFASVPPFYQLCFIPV

Cytochrome P450 2D6 = Cytochrome P450 2D6 (Homo sapiens, UniProt P10635); experiment: Inhibition of CYP2D6 (unknown origin) at 10 uM; assay type: ADME
Cytochrome P450 2D6, sequence (P10635 whole entry): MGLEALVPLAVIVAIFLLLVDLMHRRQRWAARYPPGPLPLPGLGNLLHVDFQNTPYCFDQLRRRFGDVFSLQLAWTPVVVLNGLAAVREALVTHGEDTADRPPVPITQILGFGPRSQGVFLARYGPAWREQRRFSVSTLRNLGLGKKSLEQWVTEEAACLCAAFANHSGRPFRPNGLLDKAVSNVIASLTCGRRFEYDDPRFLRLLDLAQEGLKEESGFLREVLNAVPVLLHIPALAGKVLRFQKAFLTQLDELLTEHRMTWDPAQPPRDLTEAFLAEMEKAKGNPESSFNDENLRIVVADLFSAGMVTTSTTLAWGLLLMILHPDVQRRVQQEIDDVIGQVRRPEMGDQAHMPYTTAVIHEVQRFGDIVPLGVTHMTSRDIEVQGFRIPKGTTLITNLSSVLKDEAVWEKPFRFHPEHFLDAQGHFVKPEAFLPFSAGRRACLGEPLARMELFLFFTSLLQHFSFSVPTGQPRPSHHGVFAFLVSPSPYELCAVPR

[18] = Bioavailability in ddY mouse at 1 mg/kg, iv by LC-MS/MS analysis; assay type: ADME, organism-based; conditions: in vivo
Mus musculus [19] = experiment: Analgesic activity against PSL-induced neuropathic pain mouse model assessed as reversal of thermal hyperalgesia at 1 mg/kg, po measured after 120 mins by plantar test; assay type: functional, organism-based
[20] = 1-Octanol/PBS buffer distribution coefficient, log D of the compound at pH 7.4 by HPLC/LC-MS analysis; assay type: physicochemical
[21] = Tmax in ddY mouse at 1 mg/kg, po by LC-MS/MS analysis; assay type: ADME, organism-based; conditions: in vivo
[22] = target: Sodium channel protein type 9 subunit alpha/beta-1/beta-2 (Mus musculus, UniProt Q62205); experiment: Inhibition of mouse Nav1.7/beta1/2 transfected in HEK293-A cells assessed as inhibition of channel current incubated for 5.5 mins by high-throughput electrophysiology system analysis; assay type: cell-based

solubility thermodynamic at 4 h [1]: 130 µM (≈ 55 µg/mL)
Activity [2]: Not Active
inhibition (INH) (Cytochrome P450 3A4): Not Active
IC50 [6]: 0.015 µM
inhibition (INH) (Cytochrome P450 1A2): Not Active
clearance [8]: 1.01 mL/min/kg
Vd [10]: 0.81 L/kg
fraction unbound [11]: 0.005
AUC(0-t) [13]: 41.5 µM·h
Cmax [15]: 2300 nM
half-life [17]: 17 h
inhibition (INH) (Cytochrome P450 2C9): Not Active
inhibition (INH) (Cytochrome P450 2D6): Not Active
bioavailability [18]: 117%
logD [20]: 1
Tmax [21]: 3.3 h
IC50 [22]: 0.061 µM
SMILES: Cc1cn(-c2cncc(C(F)(F)F)c2)c2ccc(C(=O)NS(=O)(=O)C3CC3)cc12
Activity (Mus musculus [3]): inactive
IC50 [4]: 14 µM
Ratio IC50 [5]: 440
Activity (Mus musculus [7]): inactive
Ratio IC50 [9]: 930
inhibition at 100 µM (hERG (KCNH2)): 6.9%
IC50 [12]: 6.6 µM
Activity (Mus musculus [14]): Active
Ratio [16]: 0.2
Activity (Mus musculus [19]): Active
